# Patent publication US8232288B2, “Substituted benzimidazoles, benzothiazoles and benzoxazoles” (Gruenenthal GmbH, priority 2009, dated 2012)
# Assays:
# [1] = molecular target: T1, human B1R receptor (hB1R) (Homo sapiens, UniProt P46663); assay: Functional investigation on the bradykinin receptor 1 (B1R), FLIPR Ca2+ assay, hB1R cells; format: cell-based
# T1 construct: expressed in transfected cells; host or cells: CHO K1 cells
# T1 sequence (P46663 1-353): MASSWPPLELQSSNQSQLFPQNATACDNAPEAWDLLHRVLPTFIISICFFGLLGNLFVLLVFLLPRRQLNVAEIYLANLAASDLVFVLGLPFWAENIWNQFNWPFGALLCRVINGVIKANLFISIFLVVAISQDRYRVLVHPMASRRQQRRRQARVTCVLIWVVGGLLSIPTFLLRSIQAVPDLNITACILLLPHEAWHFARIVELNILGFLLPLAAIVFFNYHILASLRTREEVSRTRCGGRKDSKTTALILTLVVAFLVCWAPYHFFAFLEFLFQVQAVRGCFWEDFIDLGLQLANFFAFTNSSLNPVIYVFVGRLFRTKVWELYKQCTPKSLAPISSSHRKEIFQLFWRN
# How it was run: (§1)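 Stably transfected CHO K1 cells expressing human or rat B1R were loaded with Fluo-4, and Ca2+ fluorescence was read on a FLIPR. Compound (10 μM) was added first to measure activation. After 10–20 min, agonist at EC80 was added (Lys-Des-Arg9-bradykinin for hB1R, Des-Arg9-bradykinin for rB1R) to give % inhibition. IC50 values came from concentration series.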
# [2] = molecular target: T2, B1R receptor of the rat (rB1R) (Rattus norvegicus, UniProt P97583); assay: Functional investigation on the bradykinin receptor 1 (B1R), FLIPR Ca2+ assay, rB1R cells; format: cell-based
# T2 construct: expressed in transfected cells; host or cells: CHO K1 cells
# T2 sequence (P97583 1-337): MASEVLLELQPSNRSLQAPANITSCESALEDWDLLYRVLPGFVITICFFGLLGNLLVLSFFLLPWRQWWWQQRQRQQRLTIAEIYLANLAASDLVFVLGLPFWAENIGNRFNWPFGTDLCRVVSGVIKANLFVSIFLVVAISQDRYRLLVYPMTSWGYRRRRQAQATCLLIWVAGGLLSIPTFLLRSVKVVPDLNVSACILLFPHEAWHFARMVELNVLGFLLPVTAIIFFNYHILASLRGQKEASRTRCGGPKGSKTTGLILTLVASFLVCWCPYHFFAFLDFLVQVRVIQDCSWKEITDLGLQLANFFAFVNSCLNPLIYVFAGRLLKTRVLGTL
# How it was run: as §1
Structure (SMILES),inhibition at 10 µM [1] [%],inhibition at 10 µM [2] [%],% Inhibition (human B1R) at 10 μM ([1]; 10 µM) [%],% Inhibition (rat B1R) at 10 μM ([2]; 10 µM) [%]
"COc1cc(C)c(S(=O)(=O)N(C)C(C)c2nc3cccc(C(=O)N4CCC5(CCN(Cc6c(F)cccc6Cl)CC5)CC4)c3[nH]2)c(C)c1 (stereo not shown) [I_CC-40, N-[1-[7-[9-[(2-Chloro-6-fluoro-phenyl)-methyl]-3,9-diazaspiro[5.5]undecane-3-carbonyl]-1H-benzoimidazol-2-yl]-ethyl]-4-methoxy-N,2,6-trimethyl-benzenesulfonic acid amide]",49,99,–,–
"COc1cc(C)c(S(=O)(=O)N(C)C(C)c2nc3cccc(C(=O)N4CCC5(CCN(Cc6ccncc6)CC5)CC4)c3[nH]2)c(C)c1 (stereo not shown) [I_CC-27, 4-Methoxy-N,2,6-trimethyl-N-[1-[7-[9-(pyridin-4-yl-methyl)-3,9-diazaspiro[5.5]undecane-3-carbonyl]-1H-benzoimidazol-2-yl]-ethyl]-benzenesulfonic acid amide]",90,92,–,–
"COc1cc(C)c(S(=O)(=O)N(C)Cc2nc3cccc(C(=O)N4CCC5(CCC(N6CC(F)(F)C6)CC5)CC4)c3[nH]2)c(C)c1 [I_05, N-[[7-[9-(3,3-difluoro-azetidin-1-yl)-3-azaspiro[5.5]undecane-3-carbonyl]-1H-benzoimidazol-2-yl]-methyl]-4-methoxy-N,2,6-trimethyl-benzenesulfonic acid amide]",55,72,–,–
"COc1cc(C)c(S(=O)(=O)N(C)Cc2nc3c(C(=O)N4CCC5(CC4)CCN(c4ccncc4)C5)cccc3s2)c(C)c1 [I_CC-20, 4-methoxy-N,2,6-trimethyl-N-[[4-(3-pyridin-4-yl-3,8-diazaspiro[4.5]decane-8-carbonyl)-benzothiazol-2-yl]-methyl]-benzenesulfonic acid amide]",93,100,–,–
"CN(Cc1nc2cccc(C(=O)N3CCC4(CC3)CCN(c3ccncc3)C4)c2[nH]1)C(=O)c1ccccc1Cl [I_CC-08, 2-chloro-N-methyl-N-[[7-(3-pyridin-4-yl-3,8-diazaspiro[4.5]decane-8-carbonyl)-1H-benzoimidazol-2-yl]-methyl]-benzamide]",26,64,–,–
"CN(Cc1nc2cccc(C(=O)N3CCC4(CC3)C(=O)NCC4c3ccncc3)c2[nH]1)C(=O)c1ccccc1Cl (stereo not shown) [I_CC-02, 2-chloro-N-methyl-N-[[7-(4-oxo-1-pyridin-4-yl-3,8-diazaspiro[4.5]decane-8-carbonyl)-1H-benzoimidazol-2-yl]-methyl]-benzamide]",10,46,–,–
"COc1cc(C)c(S(=O)(=O)N(C)c2nc3cccc(C(=O)N4CCC5(CC4)C(=O)NCC5c4ccncc4)c3n2C)c(C)c1 (stereo not shown) [I_CC-16, 4-methoxy-N,2,6-trimethyl-N-[1-methyl-7-(4-oxo-1-pyridin-4-yl-3,8-diazaspiro[4.5]decane-8-carbonyl)-1H-benzoimidazol-2-yl]-benzenesulfonic acid amide]",72,82,–,–
"COc1cc(C)c(S(=O)(=O)N(C)C(C)c2nc3cccc(C(=O)N4CCC5(CC4)CCN(S(=O)(=O)c4ccc(F)cc4F)CC5)c3[nH]2)c(C)c1 (stereo not shown) [I_CC-57, N-[1-[7-[9-[(2,4-Difluoro-phenyl)sulfonyl]-3,9-diazaspiro[5.5]undecane-3-carbonyl]-1H-benzoimidazol-2-yl]-ethyl]-4-methoxy-N,2,6-trimethyl-benzenesulfonic acid amide]",22,103,–,–
"COc1cc(C)c(S(=O)(=O)N(C)Cc2nc3cccc(C(=O)N4CCC5(CC4)CCN(c4ccncc4)CC5)c3[nH]2)c(C)c1 [I_01, 4-methoxy-N,2,6-trimethyl-N-[[7-(9-pyridin-4-yl-3,9-diazaspiro[5.5]undecane-3-carbonyl)-1H-benzoimidazol-2-yl]-methyl]-benzenesulfonic acid amide]",–,–,98,96
"Cc1ccc(Cl)c(S(=O)(=O)N(C)Cc2nc3cccc(C(=O)N4CCC5(CC4)CCN(c4ccncc4)CC5)c3[nH]2)c1Cl [I_17, 2,6-dichloro-N,3-dimethyl-N-[[7-(9-pyridin-4-yl-3,9-diazaspiro[5.5]undecane-3-carbonyl)-1H-benzoimidazol-2-yl]-methyl]-benzenesulfonic acid amide]",95,24,–,–
"COc1cc(C)c(S(=O)(=O)N2CCCCC2c2nc3cccc(C(=O)N4CCC5(CC4)CCN(c4ccncc4)CC5)c3[nH]2)c(C)c1 (stereo not shown) [I_18, [2-[1-[(4-methoxy-2,6-dimethyl-phenyl)sulfonyl]-piperidin-2-yl]-3H-benzoimidazol-4-yl]-(9-pyridin-4-yl-3,9-diazaspiro[5.5]undecan-3-yl)-methanone]",97,49,–,–

# Results, then the compound that gave them:
inhibition at 10 µM [1] [%],inhibition at 10 µM [2] [%],% Inhibition (human B1R) at 10 μM ([1]; 10 µM) [%],% Inhibition (rat B1R) at 10 μM ([2]; 10 µM) [%],Structure (SMILES)
91,105,–,–,"CN(Cc1nc2cccc(C(=O)N3CCC4(CC3)CCN(c3ccncc3)CC4)c2[nH]1)C(=O)c1ccc(Cl)s1 [I_16, 5-chloro-N-methyl-N-[[7-(9-pyridin-4-yl-3,9-diazaspiro[5.5]undecane-3-carbonyl)-1H-benzoimidazol-2-yl]-methyl]-thiophene-2-carboxylic acid amide]"
98,30,–,–,"COc1cc(C)c(S(=O)(=O)N(C)Cc2nc3c(C(=O)N4CCC5(CC4)CCN(c4ccncc4)CC5)cccc3n2C)c(C)c1 [I_20, 4-methoxy-N,2,6-trimethyl-N-[[1-methyl-4-(9-pyridin-4-yl-3,9-diazaspiro[5.5]undecane-3-carbonyl)-1H-benzoimidazol-2-yl]-methyl]-benzenesulfonic acid amide]"
100,102,–,–,"COc1cc(C)c(S(=O)(=O)N(C)Cc2nc3cccc(C(=O)N4CCC5(CC4)CCN(c4ccncc4)C5)c3[nH]2)c(C)c1 [I_CC-06, 4-methoxy-N,2,6-trimethyl-N-[[7-(3-pyridin-4-yl-3,8-diazaspiro[4.5]decane-8-carbonyl)-1H-benzoimidazol-2-yl]-methyl]-benzenesulfonic acid amide]"
58,103,–,–,"COc1cc(C)c(S(=O)(=O)N(C)C(C)c2nc3cccc(C(=O)N4CCC5(CCN(Cc6c[nH]cn6)CC5)CC4)c3[nH]2)c(C)c1 (stereo not shown) [I_CC-25, N-[1-[7-[9-(1H-Imidazol-4-yl-methyl)-3,9-diazaspiro[5.5]undecane-3-carbonyl]-1H-benzoimidazol-2-yl]-ethyl]-4-methoxy-N,2,6-trimethyl-benzenesulfonic acid amide]"
30,93,–,–,"CN(Cc1nc2cccc(C(=O)N3CCC4(CC3)CCN(c3ccncc3)CC4)c2[nH]1)C(=O)c1sccc1Cl [I_CC-05, 3-chloro-N-methyl-N-[[7-(3-pyridin-4-yl-3,9-diazaspiro[5.5]undecane-9-carbonyl)-1H-benzoimidazol-2-yl]-methyl]-thiophene-2-carboxylic acid amide]"
98,92,–,–,"COc1cc(C)c(S(=O)(=O)N(C)C2(c3nc4cccc(C(=O)N5CCC6(CC5)CCN(c5ccncc5)CC6)c4[nH]3)CC2)c(C)c1 [I_12, 4-methoxy-N,2,6-trimethyl-N-[1-[7-(9-pyridin-4-yl-3,9-diazaspiro[5.5]undecane-3-carbonyl)-1H-benzoimidazol-2-yl]-cyclopropyl]-benzenesulfonic acid amide]"
100,103,–,–,"COc1cc(C)c(S(=O)(=O)N(C)Cc2nc3cccc(CN4CCC5(CC4)CCN(c4ccncc4)CC5)c3[nH]2)c(C)c1 [I_15, 4-methoxy-N,2,6-trimethyl-N-[[7-[(9-pyridin-4-yl-3,9-diazaspiro[5.5]undecan-3-yl)-methyl]-1H-benzoimidazol-2-yl]-methyl]-benzenesulfonic acid amide]"
100,99,–,–,"CN(Cc1nc2cccc(C(=O)N3CCC4(CC3)CCN(c3ccncc3)CC4)c2[nH]1)S(=O)(=O)c1ccccc1C(F)(F)F [I_08, N-methyl-N-[[7-(9-pyridin-4-yl-3,9-diazaspiro[5.5]undecane-3-carbonyl)-1H-benzoimidazol-2-yl]-methyl]-2-(trifluoromethyl)-benzenesulfonic acid amide]"
80,89,–,–,"COc1cc(C)c(S(=O)(=O)N(C)C(C)c2nc3cccc(C(=O)N4CCC5(CCN(Cc6ccc(OC)c(F)c6)CC5)CC4)c3[nH]2)c(C)c1 (stereo not shown) [I_CC-33, N-[1-[7-[9-[(3-Fluoro-4-methoxy-phenyl)-methyl]-3,9-diazaspiro[5.5]undecane-3-carbonyl]-1H-benzoimidazol-2-yl]-ethyl]-4-methoxy-N,2,6-trimethyl-benzenesulfonic acid amide]"
